Measurements: US20190014806A1, “Composition to Reduce the Negative Effects of Alcohol Consumption” (priority 2017, published 2019)

Test system: drosophila
Assay: alcohol sedation model: recovery of drosophila after acute alcohol exposure
Format: in vivo
Conditions: FIG. 1; acute alcohol exposure over time; agents in fly food at least two days before exposure
Protocol: This invention used a modified version of the alcohol sedation model disclosed by Sandhu et al to evaluate the effects of acute alcohol exposure in drosophila. For example, in one of the models, for at least two days prior to alcohol exposure, drosophila consumed standard fly food combined with placebo or investigational agents. The drosophila were then moved to empty, foam stopper-covered vials and allowed to acclimate before the foam stoppers were injected with 1 ml 100% ethanol. At different time intervals, it was noted how many drosophila in each vial lost consciousness. […] The average recovery score was calculated by averaging the recovery scores of individual drosophila. Increasing the extent of alcohol exposure led to greater alcohol toxicity, including substantial death. In the following examples, a modified version of the alcohol sedation model employed by Sandhu et al. (“An Inexpensive, Scalable Behavioral Assay for Measuring Ethanol Sedation Sensitivity and Rapid Tolerance in Drosophila,” J Vis Exp. Author manuscript; available in PMC 2016 Apr. 15) to evaluate the effects of acute alcohol exposure was used. For at least two days prior to alcohol exposure, flies consumed standard fly food combined with placebo or investigational agents. […] The average recovery score is calculated by averaging the recovery scores of individual flies. […]

NCCS(=O)(=O)O [taurine]
recovery from consumption of alcohol in comparison with no taurine added (placebo): accelerates recovery from consumption of alcohol
